Assay results as given in ChEMBL document CHEMBL6087449, “Identification of an Isoxazole Derivative as an Antitubercular Compound for Targeting the FadD Enzymes of Mycobacterium tuberculosis” (J Med Chem, 2025).
Converted amounts (≈) assume the structure as drawn. The source made the active and inactive calls. The calls are words filed in the database; no cut-off is given here.

Assays:
[1] = test system: Mycobacterium tuberculosis; experiment: Antitubercular activity against Mycobacterium tuberculosis H37Rv assessed as inhibition of bacterial growth incubated for 5 days by Alamar Blue based assay; type: functional, organism-based; settings: for IC50: 120 h
[2] = test system: Mycobacterium tuberculosis; experiment: Antitubercular activity against Mycobacterium tuberculosis by alamar blue assay; type: functional
[3] = compound: Oc1c(Br)cc(Br)cc1-c1cc(C(F)(F)F)no1; experiment: Binding affinity to Mycobacterium tuberculosis H37Rv recombinant FadD32 assessed as Km in presence of ATP by Michaelis-Menten plot analysis
[4] = compound: Oc1c(Br)cc(Br)cc1-c1cc(C(F)(F)F)no1; experiment: Binding affinity to Mycobacterium tuberculosis H37Rv recombinant FadD32 assessed as Km in presence of lauric acid by Michaelis-Menten plot analysis

For `Oc1ccc(-c2onc(C(F)(F)F)c2-c2ccc(Cl)cc2)c(O)c1`, the Activity ([1]; time 5.0 day) was “inactive”.

For `Nc1ncnc2c1ncn2[C@@H]1O[C@H](COS(=O)(=O)NC(=O)c2ccc(O)cc2)[C@@H](O)[C@H]1O`, the MIC [2] was > 800 µM.

`COc1ccc(-c2onc(C(F)(F)F)c2-c2ccccc2)c(O)c1` showed an IC50 [1] of 21.7 µg/mL (≈ 64.7 µM).

`Cc1ccc(O)c(-c2cc(C(F)(F)C(F)F)no2)c1` gave an IC50 [1] of 12.8 µg/mL (≈ 46.5 µM).

B1: Long-chain-fatty-acid--AMP ligase FadD32 (Mycobacterium tuberculosis (strain ATCC 25618 / H37Rv)), O53580 (protein)
chain: MFVTGESGMAYHNPFIVNGKIRFPANTNLVRHVEKWAKVRGDKLAYRFLDFSTERDGVARDILWSDFSARNRAVGARLQQVTQPGDRVAILCPQNLDYLISFFGALYSGRIAVPLFDPAEPGHVGRLHAVLDDCAPSTILTTTDSAEGVRKFIRARSAKERPRVIAVDAVPTEVAATWQQPEANEETVAYLQYTSGSTRIPSGVQITHLNLPTNVVQVLNALEGQEGDRGVSWLPFFHDMGLITVLLASVLGHSFTFMTPAAFVRRPGRWIRELARKPGETGGTFSAAPNFAFEHAAVRGVPRDDEPPLDLSNVKGILNGSEPVSPASMRKFFEAFAPYGLKQTAVKPSYGLAEATLFVSTTPMDEVPTVIHVDRDELNNQRFVEVAADAPNAVAQVSAGKVGVSEWAVIVDADTASELPDGQIGEIWLHGNNLGTGYWGKEEESAQTFKNILKSRISESRAEGAPDDALWVRTGDYGTYFKDHLYIAGRIKDLVIIDGRNHYPQDLECTAQESTKALRVGYAAAFSVPANQLPQTVFDDSHAGLKFDPEDTSEQLVIVGERAAGTHKLDHQPIVDDIRAAIAVGHGVTVRDVLLVSAGTIPRTSSGKIGRRACRAAYLDGSLRSGVGSPTVFATSD
For B1, the Km [3] was 248 µM and the Km [4] was 139 µM.
